“And” between values parts separate entries of the source, which are not always exact repeats. Identical values can stand only once. Counter-ions that a name gives are not always drawn.
Legend:
[1] = tested on: CAM vascularization; test: Antiangiogenic Effects (Ex Vivo) of steroids with or without DS4152; design: species or system chick (blood from male ICR mice)
Method: (§1) Male ICR mice were orally administered with a solution of DS4152 dissolved in physiological saline. A saline suspension of a steroid was administered orally or intramuscularly, either in combination with DS4152 or alone. Blood samples collected after 6 hours were prevented from coagulation with a 0.313% aqueous solution of sodium citrate. Each blood sample was added to the 5 day CAM in the same manner as in the direct method. The inhibitory effects were judged after two days. Results were expressed by inhibition ratios (%) of CAM vascularization of each group to that of control group with a blood sample collected from the mice with saline. (Table 11).

[2] = tested on: CAM angiogenesis; test: CAM Angiogenesis Inhibition Test (Direct Method), DS4152 and heparins with tamoxifen citrate; format: in vivo, chick; details: for 50% vascularization inhibition dose: with tamoxifen citrate 1 μg
Method: (§2) Using chick embryos, a test was carried out in accordance with the following method, which was a partial modification of the Taylor-Folkman'smethod Nature, 297, 307 (1982)].
(§3) Either DS4152 or heparin dissolved in physiological saline was added to the CAM of each 4-5 day old fertilized chicken 1 egg (species: NORIN CROSS) and then the eggs were incubated at 37° C.
(§4) Two days after the addition of the agent, the degree of the CAM vascularization was compared with that of a control to which physiological saline was only added. The 50% vascularization inhibition dose (ID50) was calculated by the probit method.
(§5) A test was conducted in the same manner as in Example 2. Antiestrogens were separately dissolved or suspended in physiological saline and were added either alone or together with DS4152. The eggs with the agents were incubated at 37° C. Two days after the addition of the agents, the degrees of development of CAM vessels were individually compared with that of a control to which physiological saline was only added.

[3] = tested on: Sarcoma 180 (S180); test: Antitumor Test, S180, tamoxifen citrate with DS4152 or heparins; format: in vivo, mouse (male ICR)
Method: (§6) C3H/He male mice (5 weeks old) were each inoculated subcutaneously with 4×10^6 cells of mouse mammary carcinoma MM46. Mice were randomized after measuring the diameters of the resultant tumors on the 7th day. In addition, male ICR mice (5 weeks old) were each inoculated subcutaneously with 1×10^6 cells of Sarcoma 180 (S180). On the 3rd days, the mice were randomized. A saline suspension of tamoxifen citrate was administered once a day for 4 days to the MM46-bearing mice on the 7th day after inoculation and to the S180-bearing mice on the 3rd day after inoculation. DS4152 and heparins were individually dissolved in physiological saline and administered either orally or subcutaneously once a day for 4 days at a dose of 30 mg/kg/day or 300 mg/kg/day. On the 5th day after the beginning of the administration, the animals were sacrificed. The tumor weights were compared with those of the control mice administered only with physiological saline (Table 15).

[4] = tested on: CAM angiogenesis; test: CAM Angiogenesis Inhibition Test (Direct Method), antiestrogens with or without DS4152; format: in vivo, chick
Method: as §2, §3, §4, §5

[5] = tested on: angiogenesis of the chick CAM; test: CAM angiogenesis inhibition, various steroids alone or with DS4152; format: in vivo; details: for degree of increase: ID50 alone vs. in the presence of 10 ng of DS4152; for ID50, used in combination with DS4152: in the presence of 10 ng of DS4152; for ID50, alone: steroid alone
[6] = tested on: CAM vascularization; test: Antiangiogenic Effects (Ex Vivo) of tamoxifen with or without DS4152; design: species or system chick (blood from mice); details: for Inhibition rate of angiogenesis: tamoxifen citrate 100 mg/kg s.c.
Method: as §1
In the same manner as in Example 8, antiangiogenic effects of tamoxifen were examined with or without DS4152.

[7] = tested on: mouse mammary carcinoma MM46; test: Antitumor Test, MM46, tamoxifen citrate with DS4152; format: in vivo, mouse (male C3H/He)
Method: as §6

[8] = tested on: breast cancer; details: Oncologia, 10, 72 (1984); cited from earlier work
[9] = tested on: vascularization in chorioallantoic membrane (CAM) of chick embryo, rabbit cornea and hamster cheek pouches; details: cited from earlier work
[10] = tested on: CAM vascularization of chick embryos; test: CAM Angiogenesis Inhibition Test (Direct Method), combination with cortisone acetate; format: in vivo; details: 0.5 μg per embryo, alone
Method: as §2, §3, §4
In the same manner as in Example 2, combination effects of a steroid and DS4152 were examined. […] The activities of DF4639 and H Fraction were also investigated in the comparison with that of DS4152.

[11] = tested on: Sarcoma 180 (S180); test: Antitumor Test, Sarcoma 180, DS4152 and cortisone acetate; format: in vivo, mouse (male ICR)
Method: Male ICR mice (5 weeks old) were each inoculated subcutaneously with 1×10^6 cells of Sarcoma 180 (S180). From the 3rd day, a saline suspension of cortisone acetate was administered at a dose of 250 mg/kg/day for 3 days and then at a dose of 100 mg/kg/day for 1 day.
DS4152 was dissolved in physiological saline and administered at a dose of 0.61 or 6.1 mg/mouse subcutaneously or orally once a day for 4 days. On the 7th day after the inoculation, the mice were sacrificed to compare their tumor weights with those of the control mice.

[12] = tested on: CAM vascularization of chick embryos; test: CAM Angiogenesis Inhibition Test (Direct Method); format: in vivo, chick (NORIN CROSS); details: even at 100 μg
Method: as §2, §3, §4

[13] = 300 mg/kg oral + tamoxifen citrate 100 mg/kg s.c.
[14] = 300 mg/kg oral + tamoxifen citrate 100 mg/kg s.c., p < 0.05
[15] = antiestrogen 1 μg, DS4152 0.01 μg
[16] = antiestrogen 10 μg, DS4152 0 μg
[17] = antiestrogen 10 μg, DS4152 0.01 μg
[18] = tamoxifen citrate 100 mg/kg s.c. alone
[19] = cortisone acetate alone, 250 then 100 mg/kg/day

Molecule: C[C@]12C[C@H]3S[C@H]3C[C@@H]1CC[C@@H]1[C@@H]2CC[C@]2(C)[C@@H](O)CC[C@@H]12 [Epithiostanol]
- Inhibition rate of angiogenesis ([1]; steroid i.m. 5 mg/kg, DS4152 0): 4.0%
- Inhibition rate of angiogenesis ([1]; steroid i.m. 5 mg/kg, DS4152 30 mg/kg p.o.): 5.2%
- Inhibition rate of angiogenesis ([1]; steroid i.m. 50 mg/kg, DS4152 0): 13.4%
- Inhibition rate of angiogenesis ([1]; steroid i.m. 50 mg/kg, DS4152 30 mg/kg p.o.): 23.4%
- Inhibition rate of angiogenesis ([1]; steroid i.m. 100 mg/kg, DS4152 0): 24.2%
- Inhibition rate of angiogenesis ([1]; steroid i.m. 100 mg/kg, DS4152 30 mg/kg p.o.): 37.6%

Molecule: low molecular weight heparin
- 50% vascularization inhibition dose [2]: 1.37 µg
- T/C [3, 13]: 66%
- Tumor weight, mean ± S.D. [3, 14]: 202 ± 22 mg

Molecule: CCN(CC)CCOc1ccc(C(=C(Cl)c2ccccc2)c2ccccc2)cc1 [Clomiphene citrate]
- percent inhibition of CAM vascularization ([4]; antiestrogen 1 μg, DS4152 0 μg): -3.9%
- percent inhibition of CAM vascularization [4, 15]: 32.6%
- percent inhibition of CAM vascularization [4, 16]: -11.4%
- percent inhibition of CAM vascularization [4, 17]: 42.0%

Molecule: C[C@]12CC[C@@H]3c4ccc(O)cc4CC[C@H]3[C@@H]1CC[C@@H]2O [17β-Estradiol]
- degree of increase [5]: 7.0 times
- ID50, used in combination with DS4152 [5]: 0.28 μg/embryo
- ID50, alone [5]: 1.96 μg/embryo

Molecule: CC/C(=C(\c1ccccc1)c1ccc(OCCN(C)C)cc1)c1ccccc1 [Tamoxifen citrate]
- percent inhibition of CAM vascularization ([4]; antiestrogen 1 μg, DS4152 0 μg): -0.4%
- percent inhibition of CAM vascularization [4, 15]: 56.2%
- percent inhibition of CAM vascularization [4, 16]: 2.9%
- percent inhibition of CAM vascularization [4, 17]: 70.5%
- effect on vascularization ([2]; 1 μg, alone): too little to affect the vascularization
- Inhibition rate of angiogenesis ([6]; DS4152 0): -6.1% and -11.0%
- Inhibition rate of angiogenesis ([6]; DS4152 30 mg/kg oral): 40.0%
- Inhibition rate of angiogenesis ([6]; DS4152 30 mg/kg subcutaneous): 61.2%
- influence on vascularization of CAM ([6]; tamoxifen citrate only): no influence
- inhibition of CAM vascularization ([6]; tamoxifen with subcutaneous or oral DS4152 (30 mg/kg)): inhibited markedly the CAM vascularization
- effect on growth of mammary carcinoma MM46 ([7]; single administration (alone)): inhibited
- T/C [7, 18]: 6.6%
- Tumor weight, mean ± S.D. ([7]; tamoxifen citrate 100 mg/kg s.c. alone, p < 0.05): 273 ± 27 mg
- effect on growth of sarcoma S180 ([3]; administered alone): did not affect the growth
- T/C [3, 18]: 97%
- Tumor weight, mean ± S.D. [3, 18]: 298 ± 31 mg

Molecule: C[C@]1(O)CC[C@H]2[C@@H]3CCC4=CC(=O)CC[C@]4(C)[C@@]3(F)[C@@H](O)C[C@@]21C [Fluoxymesterone]
- degree of increase [5]: 10.3 times
- ID50, used in combination with DS4152 [5]: 0.12 μg/embryo
- ID50, alone [5]: 1.24 μg/embryo
- effectivity (anti-breast cancer) [8]: 20-30%

Molecule: C[C@]12C=CC(=O)C=C1CC[C@@H]1[C@@H]2[C@@H](O)C[C@@]2(C)[C@H]1CC[C@]2(O)C(=O)CO [Prednisolone]
- degree of increase [5]: 16.3 times
- ID50, used in combination with DS4152 [5]: 0.08 μg/embryo
- ID50, alone [5]: 1.30 μg/embryo
- suppression of experimentally induced vascularization [9]: effective

Molecule: CC(=O)OCC(=O)[C@@]1(O)CC[C@H]2[C@@H]3CCC4=CC(=O)CC[C@]4(C)[C@H]3C(=O)C[C@@]21C [Cortisone acetate]
- influence on vascularization [10]: not to give any influence to the vascularization
- degree of increase [5]: 7.1 times
- ID50, used in combination with DS4152 [5]: 0.17 μg/embryo
- ID50, alone [5]: 1.20 μg/embryo
- Inhibition rate of angiogenesis ([1]; steroid p.o. 5 mg/kg, DS4152 0): 7.7%
- Inhibition rate of angiogenesis ([1]; steroid p.o. 5 mg/kg, DS4152 30 mg/kg p.o.): 75.1%
- T/C [11, 19]: 94.2%
- Tumor weight, mean ± standard error [11, 19]: 0.340 ± 0.162
- tumor weight compared with saline group ([11]; cortisone acetate only): not different

Molecule: CC(=O)[C@H]1CC[C@H]2[C@@H]3CCC4=CC(=O)CC[C@]4(C)[C@H]3CC[C@]12C [Progesterone]
- degree of increase [5]: 2.1 times
- ID50, used in combination with DS4152 [5]: 0.49 μg/embryo
- ID50, alone [5]: 1.02 μg/embryo

Molecule: heparin
- effect on CAM vascularization [12]: no effect
- 50% vascularization inhibition dose [2]: 3.43 µg
- T/C [3, 13]: 66%
- Tumor weight, mean ± S.D. [3, 14]: 203 ± 13 mg
